In publication PMC5131364, “Pharmacologic modulation of RORγt translates to efficacy in preclinical and translational models of psoriasis and inflammatory arthritis” (Scientific Reports, 2016):

Test system: human CD4+ T cells under Treg polarizing conditions
Experiment: Human Treg in vitro differentiation
Type: cell-based
Conditions: 6 days, 1 μM
Method: Mouse CD4+ T cell in vitro Th1 differentiation
Total CD4+ T cells were isolated from splenocytes of C57/BL6 mice (Chareles River Labrotory) using a CD4+ T cell isolation kit (Miltenyl Biotec, Auburn, CA), following the manufacturer’s instructions. Cells were resuspended in culture medium (described in Method section of Th17 differentiation) and were added to 96‐well plates at 2x10^5 per well. Titrated JNJ‐54271074 was added to each well at final DMSO concentration of 0.2%. Cells were incubated for 1 hour, after which Th1 cell differentiation medium was added with final concentrations of 1 µg/ml anti‐CD3, 5 µg/mL anti‐CD28 (BD Pharmingen, San Diego, CA), 10 µg/ml anti‐IL4, 10 ng/mL IL‐12, (R&D Systems, Minneapolis, MN). Cells were cultured at 37 °C and 5% CO2 for 3 days. Supernatants were collected and the accumulated cytokines in culture were measured by ELISA kits (R&D Systems, Minneapolis, MN) following manufacturers' instructions.
IL‐23 induced IL‐17A and IL‐22 production in mouse splenocytes splenocytes were isolated from C57/BL6 mice and resuspended in medium and cultured in 96‐well plates at […] per 100 µL per well. […] Supernatants were collected and the accumulated cytokines in culture were measured by ELISA according to the manufacturer’s instructions (IL‐17A kit from R&D systems, and IL‐22 from Biolegend San Diego). […]

For COc1nc2ccc([C@@](O)(c3ccc(C)nc3C)c3cnnn3C)cc2c(Cl)c1Cc1ccc(C(F)(F)F)cc1 [JNJ-54271074], the “mRNA expression of FOXP3” value was “slightly increased” and the “percentage of FOXP3+ T cell” value was “no impact”.
